Assay [1] deals with bacteriophage λ Integrase (Int) (Escherichia phage lambda, UniProt P03700). Briefly: Int-mediated excisive recombination. As to conditions: for IC50: IC50, inhibition of excisive recombination, excision pathway. In kind it is biochemical. The protocol:
FIG. 11 depicts effect of peptide KWWCRW (diamonds) and peptide KWWWRW (squares) on the remaining 3 pathways of Int-mediated recombination. Recombination extents were normalized to the amount of recombination in untreated reactions and expressed as relative % recombination. A. Effect of peptides on integrative recombination (IC50 values for both peptides are roughly 0.2 μM). Reactions were assembled as for bent-L recombination except that they were incubated at room temperature, the substrates were a supercoiled plasmid (4.8 kb) carrying attP and ^32P labeled 91 bp PCR fragment encoding attB. […] The recombination substrates were PCR fragments encoding the attL (^32P-labeled) and attR sites. Reactions contained 50 NM Xis in addition to Int and IHF (37 nM), as well as 100 ng salmon sperm DNA, and were incubated at room temperature. C. Effect of peptides on straight-L recombination (IC50 values for peptide KWWCRW is 0.06 μM, while for peptide KWWWRW is slightly over 0.1 μM). Reactions were assembled as for bent-L recombination except that they were incubated at room temperature; the substrates were two PCR fragments, one of which was ^32P-labeled and 187 bp, the other of which was unlabeled and 496 bp.
Int Assays. Site-specific recombination and gel mobility shift assays were performed as described (Segall, 1998). Briefly, reactions were performed in a total volume of 10 or 20 μl and typically contained 1-2 nM radiolabeled att site as specified, 4 nM unlabeled att site, 100-300 ng salmon sperm DNA as nonspecific competitor, 44 mM Tris-Ci (pH 8.0), 60 mM KCl, 0.05 mg/ml bovine serum albumin, 7 mM Tris borate (pH 8.9), 5 mM spermidine, 1.3 mM EDTA, and 14.6% v/v glycerol. […] Dried gels were visualized and quantitated using a Molecular Dynamics PhosphorImager.
Excision reactions: Reactions were performed in 10 μL volume containing 20 mM Tris-HCl pH 8, 5 mM spermidine, 0.2 μg BSA, 75 ng to 0.15 μg salmon sperm DNA, 30 mM KCl, and TE (recombination mix). […] All gel images were visualized with a PhosphorImager (Molecular Dynamics) and quantitated with ImageQuant software (Molecular Dynamics).

The subject of the next assay is double-stranded DNA. Briefly: Peptide binding to DNA (electrophoretic mobility shift). An excerpt:
Do peptides KWWCRW and KWWWRW inhibit recombination by interfering with the formation of higher order complexes? The formation of intermediates in the bent-L pathway depends on Int contacting two different types of sites, the higher affinity arm sites and the lower affinity core sites flanking the loci of DNA cleavage and strand exchange (FIG. 9). […] To determine the effect of KWWCRW on interactions of Int with its core binding sites, we assembled the recombination complexes, known as intasomes or unimolecular complexes (UMC), on an attL variant substrate with 4 mutations in the IHF binding site, collectively known as QH′. These mutations prevent the specific binding of IHF to the QH′ sequence (Gardner and Nash, 1986), but still allow IHF to bind and bend DNA nonspecifically (Segall et al., 1994). […] We next tested the assembly of bent-L pathway intermediates. At 10 μM peptide, all of the labeled DNA was shifted into the well. However, at lower peptide concentrations that still inhibited recombination (0.1-1 μM), intermediates were assembled normally. In fact, one of the intermediates, the bimolecular complex (BMC), accumulates substantially in the presence of the peptide (see also FIG. 12). […] This agrees perfectly with our observations that suboptimal concentrations of peptide lead to accumulation of Holliday junctions (FIG. 10). […] The peptide shifts att site DNA even in the complete absence of Int (data not shown), confirming that KWWCRW interacts with DNA in a concentration-dependent fashion and in a manner that affects the mobility of the DNA much more drastically than expected for the size of the peptides.
Int Assays. Site-specific recombination and gel mobility shift assays were performed as described (Segall, 1998). Briefly, reactions were performed in a total volume of 10 or 20 μl and typically contained 1-2 nM radiolabeled att site as specified, 4 nM unlabeled att site, 100-300 ng salmon sperm DNA as nonspecific competitor, 44 mM Tris-Ci (pH 8.0), 60 mM KCl, 0.05 mg/ml bovine serum albumin, 7 mM Tris borate (pH 8.9), 5 mM spermidine, 1.3 mM EDTA, and 14.6% v/v glycerol. Any deviation from this formulation is noted in the figure legends. Gel shift reactions were incubated for 90 minutes at 37° C., layered without loading dyes onto 5% native polyacrylamide gel (29 acrylamide: 1 bis-acrylamide) and electrophoresed in 0.5× Tris borate EDTA buffer. Recombination reactions were stopped with 0.2× volume of 2% SDS, layered onto 5% polyacrylamide Tris/SDS gels, and electrophoresed in 1× Tris Tricine SDS buffer at 100 mA (Segall, 1998). Dried gels were visualized and quantitated using a Molecular Dynamics PhosphorImager.

In assay [2] the target is T1, E. coli topoisomerase I (type Ia) (Escherichia coli, UniProt P06612).
T1 sequence (P06612 1-865): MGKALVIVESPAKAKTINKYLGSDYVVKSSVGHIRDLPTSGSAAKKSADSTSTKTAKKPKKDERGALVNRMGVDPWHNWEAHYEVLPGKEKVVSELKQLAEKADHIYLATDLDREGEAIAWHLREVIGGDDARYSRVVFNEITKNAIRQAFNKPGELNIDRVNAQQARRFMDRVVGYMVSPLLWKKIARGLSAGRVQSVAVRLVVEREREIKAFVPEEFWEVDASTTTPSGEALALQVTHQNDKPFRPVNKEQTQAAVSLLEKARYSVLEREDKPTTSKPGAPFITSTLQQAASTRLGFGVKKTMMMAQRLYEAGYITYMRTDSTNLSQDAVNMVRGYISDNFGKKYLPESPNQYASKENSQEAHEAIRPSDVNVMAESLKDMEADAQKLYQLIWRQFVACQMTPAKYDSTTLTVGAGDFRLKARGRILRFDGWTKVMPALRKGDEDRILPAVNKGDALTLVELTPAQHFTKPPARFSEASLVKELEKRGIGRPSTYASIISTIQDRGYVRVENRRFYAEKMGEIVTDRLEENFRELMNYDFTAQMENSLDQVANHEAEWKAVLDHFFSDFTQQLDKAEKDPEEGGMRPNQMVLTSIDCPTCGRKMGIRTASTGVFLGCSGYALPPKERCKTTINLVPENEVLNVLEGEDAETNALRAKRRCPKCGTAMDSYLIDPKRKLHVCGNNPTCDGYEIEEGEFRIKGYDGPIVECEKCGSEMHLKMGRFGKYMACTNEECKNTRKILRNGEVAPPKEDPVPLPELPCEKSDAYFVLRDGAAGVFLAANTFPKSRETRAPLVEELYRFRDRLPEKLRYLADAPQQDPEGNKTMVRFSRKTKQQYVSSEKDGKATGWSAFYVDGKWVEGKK
Briefly: biochemical. The following applies: for IC50: IC50, DNA relaxation (activity reduced by one-half), supercoiled DNA. An excerpt:
E. coli topoisomerase I (TopA) exemplifies the type IA topoisomerase family. Type IA enzymes are mechanistically and structurally unrelated to the topoisomerase IB/tyrosine recombinase superfamily of DNA strand transferases.

The source of these data is patent publication US20040002441A1, “Recombination modulators and methods for producing and using the same” (priority 2000, published 2004).

Several values for one entry are separate records, joined by “and”; a condition that tells them apart may be missing. Equal entries are not always repeated. Entries after “also recorded” stand apart in the source; their conditions may differ. Where no end group is shown, it is not given here. A value given as a limit tells only on which side of the number the result lay.

Sequence of bacteriophage λ Integrase (Int) (P03700 whole entry, the tested form may be a part): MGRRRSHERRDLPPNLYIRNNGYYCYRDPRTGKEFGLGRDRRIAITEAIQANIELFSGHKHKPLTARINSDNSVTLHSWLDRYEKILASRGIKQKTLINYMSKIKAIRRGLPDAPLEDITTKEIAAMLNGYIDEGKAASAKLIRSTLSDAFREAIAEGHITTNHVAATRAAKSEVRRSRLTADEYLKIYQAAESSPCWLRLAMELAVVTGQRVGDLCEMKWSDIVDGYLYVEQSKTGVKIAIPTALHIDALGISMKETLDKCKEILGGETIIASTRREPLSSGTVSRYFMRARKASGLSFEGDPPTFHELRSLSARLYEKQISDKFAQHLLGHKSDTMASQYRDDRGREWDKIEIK
Sequence of bacteriophage λ Integrase (Int) (P0A6X7 whole entry partner, the tested form may be a part): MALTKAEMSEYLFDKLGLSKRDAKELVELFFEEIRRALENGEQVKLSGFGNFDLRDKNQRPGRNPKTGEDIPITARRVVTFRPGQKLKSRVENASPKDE
Sequence of bacteriophage λ Integrase (Int) (P0A6Y1 whole entry partner, the tested form may be a part): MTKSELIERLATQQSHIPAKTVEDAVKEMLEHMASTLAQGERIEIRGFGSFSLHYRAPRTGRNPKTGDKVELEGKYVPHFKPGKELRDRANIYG
Sequence of bacteriophage λ Integrase (Int) (P03699 whole entry partner, the tested form may be a part): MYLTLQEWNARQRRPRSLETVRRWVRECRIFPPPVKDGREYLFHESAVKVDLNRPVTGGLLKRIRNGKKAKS

For KWWCRW-NH2 [Peptide 59, KWWCRW], the IC50 (in general, the point on the concentration scale where inhibition reaches its midpoint) is 1100 nM and ~1100 nM in assay [1]; 8 µM in assay [2]. Further, the “binding to DNA” value with double-stranded DNA is on record as “appear to bind to DNA; also recorded: binds double stranded DNA by itself”. The “peptide concentration that shifts the mobility of double-stranded DNA” value in the assay with double-stranded DNA (reactions with at least 50 ng salmon sperm DNA) is at least 5 µM.
Turning to KWWWRW-NH2 [Peptide 56, KWWWRW], the IC50 in assay [1] is about 1100 nM; in assay [2] it was 7 to 10 µM. Moreover, the “binding to DNA” value in the assay on double-stranded DNA is on record as “appear to bind to DNA”.
Turning to WKHYNY-NH2 [Peptide 52, WKHYNY], the EC50 (in general, the concentration at which the effect is half-maximal) in assay [1] was in the range of 10 to 20 µM. Moreover, the “binding to DNA” value with double-stranded DNA is reported as “do not bind double-stranded DNA”. For the same substance, in assay [2] (peptide concentrations up to 42 μM), the “effect on DNA relaxation” value is listed as “no effect”.
